One assay concerns the target T1, IGFBP-5 (Homo sapiens, UniProt P24593).
T1 construct: His-tag (N); T7-tag (pET-28a construct only) (N); made in house; host or cells: E. coli BL21
Put plainly: Detection of ligand binding by 15N-HSQC NMR titration. As for the experimental part: Ligand binding was detected by acquiring ^15N—HSQC spectra. All NMR spectra were acquired at 300 K on Bruker DRX600 spectrometer. The samples for NMR spectroscopy were concentrated and dialyzed against PBS buffer. Typically, the sample concentration was varied from 0.3 to 1.0 mM. Before measuring, the sample was centrifuged in order to sediment aggregates and other macroscopic particles. 450 μl of the protein solution were mixed with 50 μl of D2O (5-10%) and transferred to an NMR sample tube. The stock solutions of compounds were 100 mM either in water or in perdeuterated DMSO. pH was maintained constant during the whole titration. The binding was monitored by observation of the changes in the ^15N—HSQC spectrum. Dissociation constants were obtained by monitoring the chemical shift changes of the backbone amide of several amino acid residues (Table 9) as a function of ligand concentration. Data were fit using a single binding site model.

For assay [1], the target named is T2, complex of IGFBP-5 and IGF-I (Homo sapiens, UniProt P24593). Put plainly: Release of IGF-I from the complex with IGFBP-5 measured by IGF-R activation (autophosphorylation) in NIH 3T3 cells. Type of assay: cell-based. The conditions noted are these: FIG. 8. An excerpt:
Kalus, W., et al., in EMBO J. 17 (1998) 6558-6572, describe the inhibition of the activation and autophosphorylation of the IGF-R by IGF-I in the presence of IGFBP-5. This assay was used to further investigate the release of IGF-I from the inhibitory complex with IGFBP-5 by compound 3. Binding of compound 3 to IGFBP-5 and dissociation of the complex of the binding protein with IGF-I should result in an activation and autophosphorylation of the IGF-R in the presence of IGFBP-5.
Confluent monolayers of the NIH 3T3 cells stably expressing human IGF-R in 3.5 cm dishes were starved in DMEM containing 0.5% dialysed fetal calf serum. After 48 h, cells were incubated without any hormone or with 10 nM IGF-I. Samples were preincubated with 100 nM IGFBP-5 and increasing concentrations of compound 3 from 0 to 50 μM at room temperature for 1 h. After a 10 min stimulation at 37° C., the medium was removed and cells were lysed with 250 μl of lysing buffer (20 mM HEPES pH 7.5, 150 mM NaCl, 10% glycerol, 1% NP-40, 1.5 mM MgCl 2, 1 mM EGTA), 10 mM sodium orthovanadate, and protease inhibitor cocktail Complete (Roche Molecular Biochemicals) for 10 min on ice. […] The protein concentration of the supernatant was determined using the BCA kit from Pierce according to the manufacturer's instructions. […]

In assay [2] the target is T2, complex of IGFBP-5 and IGF-I. As to the kind of experiment: Release of IGF-I from the complex with IGFBP-5 measured by 125I-IGF-I binding to IGF-R expressing NIH 3T3 cells. The conditions noted are these: 10 or 100 nM IGFBP-5, 5 pM 125I-IGF-I, FIG. 7. Type of assay: cell-based. As for the experimental part: Kalus, W., et al., in EMBO J. 17 (1998) 6558-6572, describe the inhibition of the binding of IGF-I to IGF-R expressing NIH 3T3 cells by formation of an inhibitory complex. This assay was used to investigate the release of IGF-I from the inhibitory complex with IGFBP-5.
NIH 3T3 cells stably expressing human IGF-R were grown in culture dishes in Dulbecco's modified Eagle's medium (DMEM) containing 10% fetal calf serum. Cells were washed carefully with PBS and incubated with 5 ml of 50 mM EDTA in PBS for 45 min. Cells were removed from the plate, washed once with PBS and once with binding buffer (100 mM HEPES pH 7.6, 120 mM NaCl, 5 mM KCl, 1.2 mM MgSO 4, 1 mM EDTA, 10 mM glucose, 15 mM sodium acetate, 1% dialysed BSA), and resuspended in binding buffer to determine the cell number. 5 pM ^125 I-IGF-I (Amersham) was preincubated with either 10 or 100 nM IGFBP-5 alone or in combination with 33 μM of the different compounds 1,2,3,4B and 4C at 4° C. for 1 h. Then 400 μl of the cell suspension corresponding to 2×10^5 cells were added to give a total volume of 500 μl. After 12 h incubation at 4° C., cells were washed with binding buffer (at 4° C.). Free hormone was removed by repeated centrifugation and resuspension in the binding buffer. The 125 I radioactivity bound to the cells was determined in a gamma-counter.

For another assay, the target named is IGF-I (Homo sapiens, UniProt P05019). Particulars: domain of IGFBP-5 residues 40-92; cited from earlier work.
Another assay has as its target IGF-II (Homo sapiens, UniProt P01344). The conditions noted are these: domain of IGFBP-5 residues 40-92; cited from earlier work.
Another assay relates to tumor growth. The conditions noted are these: 1 mg/dose daily in mice; cited from earlier work.
A further assay concerns MDA-MB-231 cells. The conditions noted are these: in vivo in mice; cited from earlier work.
In another assay the test system is MDA-MB-435A cells. The conditions noted are these: in vitro; cited from earlier work.
Another assay concerns MCF-7 cells. The conditions noted are these: in vitro; cited from earlier work.
Where [3] appears, read: changes in chemical shift for the residue L81, read-out: KD.

Read-outs that look alike come from different tables or passages of the source.

Results on eight molecules are retold here after patent publication US20050033035A1, “Mutants of igf binding proteins and methods of production of antagonists thereof” (priority 2001, published 2005).

T2 sequence (P24593 21-272, one chain of several): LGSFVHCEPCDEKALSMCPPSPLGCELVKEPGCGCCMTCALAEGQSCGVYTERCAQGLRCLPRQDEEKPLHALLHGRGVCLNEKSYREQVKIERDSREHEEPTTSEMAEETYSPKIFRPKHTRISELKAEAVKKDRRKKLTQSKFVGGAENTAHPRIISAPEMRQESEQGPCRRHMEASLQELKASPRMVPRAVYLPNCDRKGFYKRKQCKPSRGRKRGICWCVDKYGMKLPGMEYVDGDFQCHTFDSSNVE
Sequence of IGF-I (P05019 49-118 limits assumed): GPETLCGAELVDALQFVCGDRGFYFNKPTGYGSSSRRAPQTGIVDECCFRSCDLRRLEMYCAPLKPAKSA
Sequence of IGF-II (P01344 25-91 limits assumed): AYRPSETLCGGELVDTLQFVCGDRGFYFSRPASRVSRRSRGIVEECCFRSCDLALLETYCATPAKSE

Regarding `O=C(N[C@@H](Cc1ccc(OP(=O)(O)O)cc1)C(=O)O)OCC1c2ccccc2-c2ccccc21` [Compound 2, Nα-FMOC-O-phospho-L-tyrosine], the Kd (as a rule, a measure of binding affinity in units of concentration) amounted to 1710 ± 370 µM at IGFBP-5 (average over residues, read-out: ligand in DMSO KD); 2210 ± 400 µM at IGFBP-5 (average over residues, read-out: ligand in PBS KD); 2780 ± 300 µM at IGFBP-5 (setting [3]); 2420 ± 180 µM on IGFBP-5 (residue K91, read-out: ligand in DMSO KD); 2120 ± 1030 µM on IGFBP-5 (residue K91, read-out: ligand in PBS KD); 1310 ± 170 µM on IGFBP-5 (residue L73, read-out: ligand in DMSO KD). The Kd came to 2930 ± 1410 µM on IGFBP-5 (residue L73, read-out: ligand in PBS KD); 1640 ± 120 µM on IGFBP-5 (residue R87, read-out: ligand in DMSO KD); 2360 ± 1000 µM at IGFBP-5 (residue R87, read-out: ligand in PBS KD); 1380 ± 100 µM at IGFBP-5 (residue S85, read-out: ligand in DMSO KD); 2330 ± 940 µM at IGFBP-5 (residue S85, read-out: ligand in PBS KD); 1580 ± 90 µM on IGFBP-5 (residue Y50, read-out: ligand in DMSO KD). The Kd amounted to 1820 ± 950 µM at IGFBP-5 (residue Y50, read-out: ligand in PBS KD); 1900 ± 170 µM at IGFBP-5 (residue Y86, read-out: ligand in DMSO KD); 1720 ± 990 µM at IGFBP-5 (residue Y86, read-out: ligand in PBS KD).

On to `CC(C)(C)Oc1ccc(C[C@H](NC(=O)OCC2c3ccccc3-c3ccccc32)C(=O)O)cc1` [Compound 2A, Nα-FMOC-O-tert-butyl-L-tyrosine], for which, at IGFBP-5 (setting [3]), the Kd was 718 ± 79 µM.

As for `O=C(N[C@@H](Cc1ccccc1)C(=O)O)OCC1c2ccccc2-c2ccccc21` [Compound 2B, Nα-FMOC-L-phenylalanine], the Kd at IGFBP-5 (setting [3]) worked out at 1080 ± 507 µM.

In the case of `O=C(Nc1ccc(S(=O)(=O)F)cc1)c1cc(N=Nc2cc(Cl)ccc2Cl)c2ccccc2c1O` [Compound 3, 4-(2,5-Dichlorophenylazo)-4′fluorosulfonyl-1-hydroxy-2-naphthanilide], in assay [1] (50 uM compound 3, 100 nM IGFBP-5, 10 nM IGF-I), the “autophosphorylation of IGF-R in presence of inactive complex of IGFBP-5 and IGF-I” value is “increased autophosphorylation of the receptor”. The “release of IGF-I from the complex and binding of IGF-I to IGF-R expressing cells” value in [2] (33 μM compound) was “release of IGF-I from the complex”.

Regarding “IGFBP-5: human insulin-like growth factor binding protein 5, SwissProt P 24593”, in assay [1] (100 nM IGFBP-5, 10 nM IGF-I), the “autophosphorylation of IGF-R by IGF-I” value was “inhibited”. Further, in assay [2], the “binding of labeled IGF-I to NIH 3T3 cells” value is “inhibited”.

For the molecule “mini-IGFBP-5: domain of IGFBP-5 between residues 40-92 (GSALAEGQSCGVYTERCAQGLRCLPRQDEEKPLHALLHGRGVCLNEKSYREQVKI)”, the results for the Kd with IGF-I and with IGF-II were 0.037 µM and 0.006 µM, respectively.

B1: pegylated IGFBP-1: IGFBP-1 covalently coupled to polyethylene glycol (van den Berg) (conjugate, UniProt P08833 26-259, looked up)
Insulin-like growth …: APWQCAPCSAEKLALCPPVSASCSEVTRSAGCGCCPMCALPLGAACGVATARCARGLSCRALPGEQQPLHALTRGQGACVQESDASAPHAAEAGSPESPESTEITEEELLDNFHLMAPSEEDHSILWDAISTYDGSKALHVTNIKKWKEPCRIELYRVVESLAKAQETSGEEISKFYLPNCNKNGFYHSRQCETSMDGEAGLCWCVYPWNGKRIPGSPEIRGDPNCQIYFNVQN
modifications: PEG
In the case of B1, the “inhibition of tumor growth (response)” value with tumor growth is recorded as “only partial response”.

B2: IGFBP-1: human insulin-like growth factor binding protein 1, SwissProt P 08833 (protein, UniProt P08833 26-259, looked up)
Insulin-like growth …: APWQCAPCSAEKLALCPPVSASCSEVTRSAGCGCCPMCALPLGAACGVATARCARGLSCRALPGEQQPLHALTRGQGACVQESDASAPHAAEAGSPESPESTEITEEELLDNFHLMAPSEEDHSILWDAISTYDGSKALHVTNIKKWKEPCRIELYRVVESLAKAQETSGEEISKFYLPNCNKNGFYHSRQCETSMDGEAGLCWCVYPWNGKRIPGSPEIRGDPNCQIYFNVQN
As for B2, in the assay with MDA-MB-231 cells, the “growth of tumors formed MDA-MB-231 cells” value is reported as “inhibits the growth”. Further, in the assay on MDA-MB-435A cells, the “growth of MDA-MB-435A cells” value is recorded as “inhibits the growth”. For the same molecule, in the assay with MCF-7 cells, the “growth of MCF-7 cells” value was “inhibits the growth”.
